How the values were obtained:
[1] = system: BRSNW; test: D. Pre-emergence effects on crop plants (Tables D); type: in vivo, Brassica napus; conditions: application rate 80 g/ha, crop plant
Source text: (§1) Seeds of mono- and dicotyledonous weed plants and crop plants were sown, in plastic or organic planting pots, in sandy loam and covered with soil. The compounds according to the invention, formulated in the form of wettable powders (WP) or as emulsifiable concentrates (EC), were applied to the surface of the covering soil as aqueous suspension or emulsion, with the addition of 0.5% of an additive, at an application rate of 6001 of water/ha (converted).
(§2) Following treatment, the pots were placed in a greenhouse and kept under optimum growth conditions for the test plants. The visual grading of the damage to the test plants was carried out after ca. 3 weeks in comparison to untreated controls (herbicidal effect in percent (%): 100% effect = plants have died off, 0% effect = as control plants).
(§3) Tables D1 to D5 below show the effects of various compounds of the general formula (I) according to Table 1 on various crop plants and an application rate corresponding to 320 g/ha or below obtained by the experimental procedure mentioned above in Biological Examples, Section C. Table D1a: pre-emergence activity at 320g/ha against ZEAMX in %

[2] = system: STEME; test: A. Herbicidal pre-emergence action on harmful plants (Tables A); type: in vivo, Stellaria media; conditions: visual grading after ca. 3 weeks vs untreated controls, 100% = plants have died off, 0% = as control plants
Procedure, shortened: (§4)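 Values are visual percent damage relative to untreated controls, scored ca. 3 weeks after the compound was sprayed on the covering soil of sown pots (sandy loam) at rates up to 1280 g/ha, formulated as WP or EC with 0.5% additive.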

[3] = system: LOLRI; test: as above; type: in vivo, Lolium rigidum; conditions: visual grading after ca. 3 weeks vs untreated controls, 100% = plants have died off, 0% = as control plants
Procedure, shortened: as §4

[4] = system: POAAN; test: as above; type: in vivo, Poa annua
Procedure, shortened: as §4

[5] = system: GLXMA; test: F. Post-emergence effects on crop plants (Tables F); type: in vivo, Glycine max; conditions: application rate 320 g/ha, crop plant
Source text: (§5) Seeds of mono- and dicotyledonous weed plants and crop plants were sown, in plastic or organic planting pots, in sandy loam, covered with soil and grown in a greenhouse under controlled growth conditions. 2 to 3 weeks after sowing, the test plants were sprayed in the single-leaf stage. The compounds according to the invention, formulated in form of wettable powders (WP) or as emulsifiable concentrates (EC), were sprayed onto the green plant parts as aqueous suspension or emulsion, with the addition of 0.5% of an additive, at an application rate of 6001 of water/ha (converted). The test plants were placed in the greenhouse for ca. 3 weeks under optimum growth conditions, and then the effect of the preparations was assessed visually in comparison with untreated controls (herbicidal effect in percent (%): 100% effect = plants have died off, 0% effect = as control plants). Tables F1 to F5 below show the effects of selected compounds of the general formula (I) according to table 1 on various crop plants and an application rate corresponding to 320 g/ha or below obtained by the experimental procedure mentioned above. Table […]: post-emergence activity at 320g/ha against ZEAMX in %

[6] = system: ALOMY; test: A. Herbicidal pre-emergence action on harmful plants (Tables A); type: in vivo, Alopecurus myosuroides
Procedure, shortened: as §4

[7] = system: MATIN; test: as above; type: in vivo, Matricaria inodora; conditions: visual grading after ca. 3 weeks vs untreated controls, 100% = plants have died off, 0% = as control plants
Procedure, shortened: as §4

[8] = system: BRSNW; test: F. Post-emergence effects on crop plants (Tables F); type: in vivo, Brassica napus; conditions: application rate 80 g/ha, crop plant
Source text: as §5

[9] = system: DIGSA; test: C. Herbicidal pre-emergence action, weed and crop plants (Tables C); type: in vivo, Digitaria sanguinalis; conditions: application rate 320 g/ha; Table C5a
Source text: (§6) Seeds of mono- and dicotyledonous weed plants and crop plants were sown, in plastic or organic planting pots, in sandy loam and covered with soil. The compounds according to the invention, formulated in the form of wettable powders (WP) or as emulsifiable concentrates (EC), were applied to the surface of the covering soil as aqueous suspension or emulsion, with the addition of 0.5% of an additive, at an application rate of 6001 of water/ha (converted). Following treatment, the pots were placed in a greenhouse and kept under optimum growth conditions for the test plants. The visual grading of the damage to the test plants was carried out after ca. 3 weeks in comparison to untreated controls (herbicidal effect in percent (%): 100% effect = plants have died off, 0% effect = as control plants). Tables C1 to C12 below show the effects of selected compounds of the general formula (I) according to table 1 on various harmful plants and an application rate corresponding to 320 g/ha or below obtained by the experimental procedure mentioned above. Table C1: pre-emergence activity at 320g/ha against KCHSC in %

[10] = system: MATIN; test: as above; type: in vivo, Matricaria inodora; conditions: application rate 320 g/ha; Table C8
Source text: as §6

[11] = system: TRZAS; test: F. Post-emergence effects on crop plants (Tables F); type: in vivo, Triticum aestivum; conditions: application rate 80 g/ha, crop plant
Source text: as §5

[12] = system: GLXMA; test: D. Pre-emergence effects on crop plants (Tables D); type: in vivo, Glycine max; conditions: crop plant; application rate 80 g/ha; Table D4b
Source text: as §1, §2, §3

[13] = system: ALOMY; test: C. Herbicidal pre-emergence action, weed and crop plants (Tables C); type: in vivo, Alopecurus myosuroides; conditions: application rate 320 g/ha; Table C2a
Source text: as §6

[14] = system: ZEAMX; test: D. Pre-emergence effects on crop plants (Tables D); type: in vivo, Zea mays; conditions: crop plant; application rate 80 g/ha; Table D1b
Source text: as §1, §2, §3

[15] = system: ZEAMX; test: F. Post-emergence effects on crop plants (Tables F); type: in vivo, Zea mays; conditions: crop plant
Source text: as §5

[16] = system: ECHCG; test: C. Herbicidal pre-emergence action, weed and crop plants (Tables C); type: in vivo, Echinochloa crus-galli; conditions: application rate 320 g/ha; Table C6a
Source text: as §6

[17] = system: VIOTR; test: as above; type: in vivo, Viola tricolor; conditions: application rate 320 g/ha; Table C12a
Source text: as §6

[18] = system: ECHCG; test: A. Herbicidal pre-emergence action on harmful plants (Tables A); type: in vivo, Echinochloa crus-galli; conditions: visual grading after ca. 3 weeks vs untreated controls, 100% = plants have died off, 0% = as control plants
Procedure, shortened: as §4

[19] = system: DIGSA; test: as above; type: in vivo, Digitaria sanguinalis
Procedure, shortened: as §4

[20] = system: SETVI; test: as above; type: in vivo, Setaria viridis; conditions: visual grading after ca. 3 weeks vs untreated controls, 100% = plants have died off, 0% = as control plants
Procedure, shortened: as §4

[21] = system: SETVI; test: B. Herbicidal post-emergence action on harmful plants (Tables B); type: in vivo, Setaria viridis; conditions: application rate 1280 g/ha; Table B5
Description: (§7) Seeds of mono- and dicotyledonous weed plants were placed in plastic pots in sandy loam soil (doubly sown with in each case one species of mono- or dicotyledonous weed plants per pot), covered with soil and cultivated in a greenhouse under controlled growth conditions. 2 to 3 weeks after sowing, the test plants were treated at the one-leaf stage. The compounds of the invention, formulated in the form of wettable powders (WP) or as emulsion concentrates (EC), were applied onto the green parts of the plants as aqueous suspension or emulsion with addition of 0.5% additive at a water application rate of 600 liters per hectare (converted). After the test plants had been kept in the greenhouse under optimum growth conditions for about 3 weeks, the activity of the preparations was rated visually in comparison to untreated controls. For example, 100% activity = the plants have died, 0% activity = like control plants. Tables B1 to B12, below, show the effects of selected compounds of the general formula (I) according to table 1 on various harmful plants and an application rate corresponding to 1280 g/ha or below obtained by the experimental procedure mentioned above. Table B1a: post-emergence activity at 1280g/ha against ABUTH in %

[22] = system: POAAN; test: as above; type: in vivo, Poa annua
Procedure, shortened: (§8)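 Greenhouse weeds grown in sandy loam were sprayed post-emergence at the one-leaf stage, 2-3 weeks after sowing. Compounds were applied as WP or EC in water with 0.5% additive at 600 L/ha, at 1280 g/ha or below. Visual damage was rated after about 3 weeks versus untreated plants (0-100%).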

[23] = system: LOLRI; test: as above; type: in vivo, Lolium rigidum; conditions: application rate 1280 g/ha; Table B3
Description: as §7

[24] = system: VERPE; test: as above; type: in vivo, Veronica persica; conditions: application rate 1280 g/ha; Table B11a
Procedure, shortened: as §8

[25] = system: MATIN; test: as above; type: in vivo, Matricaria inodora
Procedure, shortened: as §8

[26] = system: STEME; test: as above; type: in vivo, Stellaria media; conditions: application rate 1280 g/ha; Table B6
Procedure, shortened: as §8

[27] = system: ECHCG; test: as above; type: in vivo, Echinochloa crus-galli; conditions: application rate 1280 g/ha; Table B2a
Procedure, shortened: as §8

[28] = application rate 80 g/ha, Table A7c
[29] = application rate 320 g/ha, Table A7b
[30] = application rate 1280 g/ha, visual grading after ca. 3 weeks vs untreated controls, 100% = plants have died off, 0% = as control plants
[31] = application rate 1280 g/ha, Table A9a
[32] = application rate 1280 g/ha, Table A12a
[33] = application rate 1280 g/ha, Table B7a

Row | Compound | pre-emergence activity against STEME ([2]; application rate 1280 g/ha) [%] | pre-emergence activity against LOLRI ([3]; application rate 320 g/ha) [%] | pre-emergence activity against LOLRI ([3]; application rate 1280 g/ha) [%] | pre-emergence activity against POAAN [4, 28] [%] | pre-emergence activity against POAAN [4, 29] [%] | pre-emergence activity against POAAN [4, 30] [%] | pre-emergence activity against ALOMY [6, 31] [%] | pre-emergence activity against MATIN ([7]; application rate 1280 g/ha) [%] | pre-emergence activity against ECHCG ([18]; application rate 320 g/ha) [%] | pre-emergence activity against ECHCG ([18]; application rate 1280 g/ha) [%] | pre-emergence activity against DIGSA [19, 32] [%] | pre-emergence activity against SETVI ([20]; application rate 1280 g/ha) [%] | pre-emergence activity against STEME ([2]; application rate 320 g/ha) [%] | post-emergence activity against POAAN [22, 33] [%] | pre-emergence activity against SETVI ([20]; application rate 320 g/ha) [%] | post-emergence activity against LOLRI [23] [%] | further results
1 | Cn1cc(C(=O)N2CCCC2Cc2ccccc2F)c(COCC(F)F)n1 (racemic) [Example I-044] | 90 | 90 | 90 | 90 | 100 | 100 | 90 | 90 | 90 | 100 | 100 | 90 |  |  |  |  | pre-emergence activity against BRSNW in % [1]: 0%; post-emergence activity against GLXMA in % [5]: 0%; post-emergence activity against BRSNW in % [8]: 0%; pre-emergence activity against DIGSA [9]: 90%; pre-emergence activity against MATIN [10]: 90%; post-emergence activity against TRZAS in % [11]: 0%; pre-emergence activity against GLXMA [12]: 0%; pre-emergence activity against ALOMY [13]: 90%; pre-emergence activity against ZEAMX [14]: 0%; post-emergence activity against ZEAMX in % ([15]; application rate 80 g/ha): 0%; post-emergence activity against ZEAMX in % ([15]; application rate 320 g/ha): 0%; pre-emergence activity against ECHCG [16]: 90%; pre-emergence activity against VIOTR [17]: 90%; pre-emergence activity against DIGSA ([19]; application rate 320 g/ha, Table A12b): 90%
2 | COCc1c(C(=O)N2CCCC2Cc2c(F)cccc2F)cnn1C (racemic) [Example I-124] | 90 | 90 | 100 | 90 | 100 | 100 |  | 100 | 90 | 100 | 90 | 90 | 90 | 90 | 90 | 90 | post-emergence activity against SETVI [21]: 90%
3 | COCc1nn(C)cc1C(=O)N1CCCC1Cc1ccccc1Br (racemic) [Example I-018] | 90 | 100 | 100 | 100 | 100 | 100 | 100 | 90 | 90 | 100 | 100 | 100 | 90 | 90 | 100 | 90 | pre-emergence activity against LOLRI ([3]; application rate 80 g/ha): 90%; pre-emergence activity against ALOMY ([6]; application rate 320 g/ha, Table A9b): 90%; pre-emergence activity against MATIN ([7]; application rate 80 g/ha): 90%; pre-emergence activity against MATIN ([7]; application rate 320 g/ha): 90%; post-emergence activity against VERPE [24]: 90%; post-emergence activity against MATIN ([25]; application rate 320 g/ha, Table B4b): 90%; post-emergence activity against MATIN ([25]; application rate 1280 g/ha, Table B4a): 90%; post-emergence activity against STEME [26]: 90%; pre-emergence activity against ECHCG ([18]; application rate 80 g/ha): 90%; post-emergence activity against ECHCG [27]: 90%; post-emergence activity against POAAN ([22]; application rate 320 g/ha, Table B7b): 90%

Source: patent EP4417602A1, “SUBSTITUTED PYRAZOLE CARBOXAMIDES, SALTS THEREOF AND THEIR USE AS HERBICIDALLY ACTIVE SUBSTANCES” (Bayer AG, priority 2023, dated 2024)
